According to patent US12612391B2, “Cromolyn derivatives and uses thereof” (The General Hospital Corporation, priority 2020, dated 2026):

Tested on: BV2-CD33^WT cells
Test: Aβ42 uptake in microglial BV2-CD33^WT cells (Aβ42-specific ELISA of cell lysates)
Type: cell-based
Settings: 100 μM; BV2-CD33 activated microglial cells; 3 hours pre-treatment, then 2 hours with Aβ42 peptide; vs DMSO control; FIG. 2
Procedure: FIG. 2 is a plot showing Aβ42 uptake in microglial BV2-CD33^WT cells treated with DMSO as control or cromolyn derivatives (C1, C3-8) at different concentrations for 3 hours. Afterwards, cells were incubated with DMSO or cromolyn derivatives in the presence of the Aβ42 peptide for additional 2 hours. Cell lysates were analyzed for intracellular levels of Aβ42 using an Aβ42-specific ELISA kit.

## CC(=O)OCc1cc(=O)c2c(OCC(COc3cccc4oc(COC(C)=O)cc(=O)c34)OC(C)=O)cccc2o1 [Compound C7, Ac-Triol- Cromolyn]
  microglial uptake of Aβ42: positive impact
